Assay results taken from patent US20070232607A1, “Quinazoline Derivatives as Erbb Receptor Tyrosine kinases” (priority 2004, published 2007).

Tests used:
EGFR tyrosine kinase = target: T1, EGFR tyrosine kinase (Homo sapiens, UniProt P00533); test: Protein tyrosine kinase phosphorylation assay, Test (a), EGFR; type: biochemical; conditions: recombinant intracellular fragment, ATP at Km concentration; read-out: IC50 (μM) Test (a): Inhibition of EGFR tyrosine kinase protein phosphorylation
T1 construct: Recombinant intracellular fragments of EGFR, erbB2 and erbB4; made in house; host or cells: baculovirus/Sf21 insect cells (cleared lysate used)
Method: (§1) This test measures the ability of a test compound to inhibit the phosphorylation of a tyrosine containing polypeptide substrate by an erb receptor tyrosine kinase enzyme.
(§2) Recombinant intracellular fragments of EGFR, erbB2 and erbB4 (accession numbers X00588, X03363 and L07868 respectively) were cloned and expressed in the baculovirus/Sf21 system. Lysates were prepared from these cells by treatment with ice-cold lysis buffer (20 mM N-2-hydroxyethylpiperizine-N′-2-ethanesulfonic acid (HEPES) pH7.5, 150 mM NaCl, 10% glycerol, 1% Triton X-100, 1.5 mM MgCl2, 1 mM ethylene glycol-bis(β-aminoethyl ether) N′,N′,N′,N′-tetraacetic acid (EGTA), plus protease inhibitors and then cleared by centrifugation.
(§3) Constitutive kinase activity of these recombinant proteins was determined by their ability to phosphorylate a synthetic peptide (made up of a random co-polymer of Glutamic Acid, Alanine and Tyrosine in the ratio of 6:3:1). Specifically, Maxisorb™ 96-well immunoplates were coated with synthetic peptide (0.2 μg of peptide in a 100 μl phosphate buffered saline (PBS) solution and incubated at 4° C. overnight). Plates were washed in 50 mM HEPES pH 7.4 at room temperature to remove any excess unbound synthetic peptide. EGFR or erbB2 activities were assessed by incubation in peptide coated plates for 20 minutes at room temperature in 50 mM HEPES pH 7.4 at room temperature, adenosine trisphosphate (ATP) at Km concentration for the respective enzyme, 10 mM MnCl2, 0.05 mM Na3VO4, 0.1 mM DL-dithiothreitol (DTT), 0.05% Triton X-100 with test compound in DMSO (final concentration of 2.5%). Reactions were terminated by the removal of the liquid components of the assay followed by washing of the plates with PBS-T (phosphate buffered saline with 0.05% Tween 20).
(§4) The immobilised phospho-peptide product of the reaction was detected by immunological methods. Firstly, plates were incubated for 90 minutes at room temperature with anti-phosphotyrosine primary antibodies that were raised in the mouse (4G10 from Upstate Biotechnology). Following extensive washing, plates were treated with Horseradish Peroxidase (HRP) conjugated sheep anti-mouse secondary antibody (NXA931 from Amersham) for 60 minutes at room temperature. After further washing, HRP activity in each well of the plate was measured colorimetrically using 22′-Azino-di-[3-ethylbenzthiazoline sulfonate (6)] diammonium salt crystals (ABTS™ from Roche) as a substrate.
(§5) Quantification of colour development and thus enzyme activity was achieved by the measurement of absorbance at 405 nm on a Molecular Devices ThermoMax microplate reader. Kinase inhibition for a given compound was expressed as an IC50 value. […] The range of phosphorylation was calculated from the positive (vehicle plus ATP) and negative (vehicle minus ATP) control values.

erbB2 tyrosine kinase = target: T2, erbB2 tyrosine kinase (Homo sapiens, UniProt P04626); test: Protein tyrosine kinase phosphorylation assay, Test (a), erbB2; type: biochemical; conditions: recombinant intracellular fragment, ATP at Km concentration; read-out: IC50 (μM) Test (a): Inhibition of erbB2 tyrosine kinase protein phosphorylation
T2 construct: Recombinant intracellular fragments of EGFR, erbB2 and erbB4; made in house; host or cells: baculovirus/Sf21 insect cells (cleared lysate used)
Method: as §1, §2, §3, §4, §5

[1] = target: T3, erbB2 in a MCF7 derived cell line (Clone 24 cells) (Homo sapiens, UniProt P04626); test: Clone 24 phospho-erbB2 cell assay, Test (d); type: cell-based; conditions: phosphorylation of erbB2 in a MCF7 derived cell line; read-out: IC50 (μM) Test (e): Inhibition of erbB2 tyrosine kinase protein phosphorylation
T3 construct: a cell line that overexpresses full length wild type erbB2 protein; expressed in transfected cells; host or cells: MCF7 (breast carcinoma) cells stably transfected, 'Clone 24'
Method: This immunofluorescence end point assay measures the ability of a test compound to inhibit the phosphorylation of erbB2 in a MCF7 (breast carcinoma) derived cell line which was generated by transfecting MCF7 cells with the full length erbB2 gene using standard methods to give a cell line that overexpresses full length wild type erbB2 protein (hereinafter ‘Clone 24’ cells).
Clone 24 cells were cultured in Growth Medium (phenol red free Dulbecco's modified Eagle's medium (DMEM) containing 10% foetal bovine serum, 2 mM glutamine and 1.2 mg/ml G418) in a 7.5% CO2 air incubator at 37° C. Cells were harvested from T75 stock flasks by washing once in PBS (phosphate buffered saline, pH7.4, Gibco No. 10010-015) and harvested using 2 mls of Trypsin (1.25 mg/ml)/ethylaminediaminetetraacetic acid (EDTA) (0.8 mg/ml) solution. The cells were resuspended in Growth Medium. Cell density was measured using a haemocytometer and viability was calculated using Trypan Blue solution before being further diluted in Growth Medium and seeded at a density of 1×10^4 cells per well (in 100 ul) into clear bottomed 96 well plates (Packard, No. 6005182).
3 days later, Growth Medium was removed from the wells and replaced with 100 ul Assay Medium (phenol red free DMEM, 2 mM glutamine, 1.2 mg/ml G418) either with or without erbB inhibitor compound. Plates were returned to the incubator for 4 hours and then 20 μl of 20% formaldehyde solution in PBS was added to each well and the plate was left at room temperature for 30 minutes. This fixative solution was removed with a multichannel pipette, 100 μl of PBS was added to each well and then removed with a multichannel pipette and then 50 μl PBS was added to each well. Plates were then sealed and stored for up to 2 weeks at 4° C.
Immunostaining was performed at room temperature. Cells were washed once with 200 μl PBS/Tween 20 (made by adding 1 sachet of PBS/Tween dry powder (Sigma, No. P3563) to 1 L of double distilled H2O) using a plate washer, then 100 μl of 0.5% Triton X-100/PBS was added to each well to permeabalise the cells. After 10 minutes, the plates were washed with 200 μl PBS/Tween 20 and then 100 μl Blocking Solution (5% Marvel dried simmed milk (Nestle) in PBS) was added per well and plates were incubated for 15 minutes. […] Plates were analysed within six hours of completing the immunostaining.
The Fluorescence signal is each well was measured using an Acumen Explorer Instrument (Acumen Bioscience Ltd.), a plate reader that can be used to rapidly quantitate features of images generated by laser-scanning. […] Fluorescence dose response data obtained with each compound was exported into a suitable software package (such as Origin) to perform curve fitting analysis. […]

T1 sequence (P00533 669-1210 limits assumed): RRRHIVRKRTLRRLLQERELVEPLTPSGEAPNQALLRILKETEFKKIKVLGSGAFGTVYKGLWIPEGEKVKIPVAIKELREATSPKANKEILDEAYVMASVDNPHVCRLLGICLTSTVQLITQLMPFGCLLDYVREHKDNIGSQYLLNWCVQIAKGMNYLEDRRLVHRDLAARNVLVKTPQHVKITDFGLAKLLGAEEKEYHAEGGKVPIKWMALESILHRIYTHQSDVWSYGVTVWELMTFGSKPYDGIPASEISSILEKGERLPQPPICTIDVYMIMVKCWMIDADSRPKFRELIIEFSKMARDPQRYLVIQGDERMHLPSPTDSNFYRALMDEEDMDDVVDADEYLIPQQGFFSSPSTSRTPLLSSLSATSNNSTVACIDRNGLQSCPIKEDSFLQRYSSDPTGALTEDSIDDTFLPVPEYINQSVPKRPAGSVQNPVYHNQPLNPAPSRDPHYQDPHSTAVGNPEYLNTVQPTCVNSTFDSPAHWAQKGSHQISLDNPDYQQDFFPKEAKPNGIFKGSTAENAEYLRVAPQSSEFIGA
T3 sequence (P04626 23-1255): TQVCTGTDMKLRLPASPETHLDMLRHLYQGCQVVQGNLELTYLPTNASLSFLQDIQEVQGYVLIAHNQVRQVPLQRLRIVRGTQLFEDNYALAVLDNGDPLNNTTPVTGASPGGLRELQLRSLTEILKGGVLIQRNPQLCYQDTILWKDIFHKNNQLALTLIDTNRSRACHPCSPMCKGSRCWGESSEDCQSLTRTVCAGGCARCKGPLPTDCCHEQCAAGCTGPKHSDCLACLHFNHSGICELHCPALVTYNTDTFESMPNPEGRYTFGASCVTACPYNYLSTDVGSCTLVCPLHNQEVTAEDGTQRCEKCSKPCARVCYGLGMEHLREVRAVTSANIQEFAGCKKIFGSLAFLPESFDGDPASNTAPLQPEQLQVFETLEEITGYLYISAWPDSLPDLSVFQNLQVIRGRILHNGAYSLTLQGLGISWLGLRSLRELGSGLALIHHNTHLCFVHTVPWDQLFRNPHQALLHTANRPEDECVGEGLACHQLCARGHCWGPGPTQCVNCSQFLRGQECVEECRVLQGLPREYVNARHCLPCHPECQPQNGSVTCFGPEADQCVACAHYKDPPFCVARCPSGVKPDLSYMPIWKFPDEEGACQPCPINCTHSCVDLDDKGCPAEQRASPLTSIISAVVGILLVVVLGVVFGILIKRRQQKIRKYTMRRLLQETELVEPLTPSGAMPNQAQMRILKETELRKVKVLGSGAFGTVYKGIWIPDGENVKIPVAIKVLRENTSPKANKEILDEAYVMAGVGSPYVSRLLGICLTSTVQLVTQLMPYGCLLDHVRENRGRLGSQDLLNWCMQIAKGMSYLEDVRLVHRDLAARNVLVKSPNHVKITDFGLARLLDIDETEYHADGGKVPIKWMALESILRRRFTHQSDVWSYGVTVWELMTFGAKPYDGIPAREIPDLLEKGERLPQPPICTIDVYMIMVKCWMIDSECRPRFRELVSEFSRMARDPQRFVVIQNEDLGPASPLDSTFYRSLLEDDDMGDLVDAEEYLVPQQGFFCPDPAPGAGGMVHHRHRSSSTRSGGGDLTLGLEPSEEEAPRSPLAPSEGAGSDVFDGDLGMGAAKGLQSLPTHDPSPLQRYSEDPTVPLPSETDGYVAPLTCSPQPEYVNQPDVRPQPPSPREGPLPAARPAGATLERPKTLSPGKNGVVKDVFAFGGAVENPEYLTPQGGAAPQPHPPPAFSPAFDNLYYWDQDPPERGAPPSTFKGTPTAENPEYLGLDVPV
T2 sequence (P04626 676-1255 limits assumed): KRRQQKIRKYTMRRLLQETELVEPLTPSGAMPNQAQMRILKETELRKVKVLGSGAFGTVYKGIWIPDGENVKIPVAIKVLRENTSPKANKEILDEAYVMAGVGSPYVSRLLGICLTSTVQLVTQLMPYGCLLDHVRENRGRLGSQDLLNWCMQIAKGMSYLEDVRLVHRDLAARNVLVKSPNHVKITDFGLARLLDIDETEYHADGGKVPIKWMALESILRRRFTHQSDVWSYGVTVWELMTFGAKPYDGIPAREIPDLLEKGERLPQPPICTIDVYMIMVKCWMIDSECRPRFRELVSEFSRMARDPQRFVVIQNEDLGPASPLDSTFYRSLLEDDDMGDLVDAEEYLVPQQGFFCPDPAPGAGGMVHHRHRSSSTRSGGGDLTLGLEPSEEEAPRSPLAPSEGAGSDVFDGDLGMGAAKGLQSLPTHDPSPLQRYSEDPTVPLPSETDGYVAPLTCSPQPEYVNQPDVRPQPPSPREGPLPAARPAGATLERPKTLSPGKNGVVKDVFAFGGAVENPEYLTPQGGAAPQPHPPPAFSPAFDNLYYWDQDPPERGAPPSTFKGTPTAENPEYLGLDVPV

SMILES	IC50 (EGFR tyrosine kinase)	IC50 (erbB2 tyrosine kinase)	IC50 [1]
C[C@@H](Oc1cccc2ncnc(Nc3ccc(OCc4ccccn4)c(Cl)c3)c12)C(=O)N(C)C [Example 21, (2R)-2-[(4-{[3-Chloro-4-(pyridin-2-ylmethoxy)phenyl]amino}quinazolin-5-yl)oxy]-N,N-dimethylpropanamide]	0.072 µM	0.002 µM	0.001 µM
C[C@H](Oc1cccc2ncnc(Nc3ccc(OCc4ccccn4)c(Cl)c3)c12)C(=O)N1CCC[C@H]1CO [Example 34, ((2S)-1-{(2S)-2-[(4-{[3-Chloro-4-(pyridin-2-ylmethoxy)phenyl]amino}quinazolin-5-yl)oxy]propanoyl}pyrrolidin-2-yl)methanol]	0.135 µM	0.002 µM	0.001 µM
CC(C)(Oc1cccc2ncnc(Nc3ccc(OCc4ccccn4)c(Cl)c3)c12)C(N)=O [Example 42, 2-[(4-{[3-Chloro-4-(pyridin-2-ylmethoxy)phenyl]amino}quinazolin-5-yl)oxy]-2-methylpropanamide]	24.8 µM	0.012 µM	0.002 µM
Cc1ccc(Oc2ccc(Nc3ncnc4cccc(OCC(=O)NCCO)c34)cc2C)cn1 [Example 52, N-(2-Hydroxyethyl)-2-{[4-({3-methyl-4-[(6-methylpyridin-3-yl)oxy]phenyl}amino)quinazolin-5-yl]oxy}acetamide]	1.47 µM	0.002 µM	0.019 µM
